# ChEMBL document CHEMBL1135648, “Synthesis and evaluation of no-carrier-added 8-cyclopentyl-3-(3-[(18)F]fluoropropyl)-1-propylxanthine ([(18)F]CPFPX): a potent and selective A(1)-adenosine receptor antagonist for in vivo imaging” (J Med Chem, 2002)
# Key:
# [1] = system: Mus musculus; test: In vivo biodistribution in NMRI (Naval Medical Research Institute) mice brain at the dose of 0.15-0.2 nmol at 10 min; type: ADME, organism-based
# [2] = system: Mus musculus; test: In vivo biodistribution in NMRI (Naval Medical Research Institute) mice spleen at the dose of 0.15-0.2 nmol at 2 min; type: ADME, organism-based
# [3] = system: Mus musculus; test: In vivo biodistribution in NMRI (Naval Medical Research Institute) mice intestine at the dose of 0.15-0.2 nmol at 5 min; type: ADME, organism-based
# [4] = system: Mus musculus; test: In vivo biodistribution in NMRI (Naval Medical Research Institute) mice pancreas at the dose of 0.15-0.2 nmol at 60 min; type: ADME, organism-based; details: 1 h
# [5] = system: Mus musculus; test: In vivo biodistribution in NMRI (Naval Medical Research Institute) mice liver at the dose of 0.15-0.2 nmol at 2 min; type: ADME, organism-based
# [6] = target: Adenosine receptor A2a (Rattus norvegicus, UniProt P30543); test: In vitro binding affinity at Adenosine A2A receptor of rat cortex
# Adenosine receptor A2a, sequence (P30543 whole entry): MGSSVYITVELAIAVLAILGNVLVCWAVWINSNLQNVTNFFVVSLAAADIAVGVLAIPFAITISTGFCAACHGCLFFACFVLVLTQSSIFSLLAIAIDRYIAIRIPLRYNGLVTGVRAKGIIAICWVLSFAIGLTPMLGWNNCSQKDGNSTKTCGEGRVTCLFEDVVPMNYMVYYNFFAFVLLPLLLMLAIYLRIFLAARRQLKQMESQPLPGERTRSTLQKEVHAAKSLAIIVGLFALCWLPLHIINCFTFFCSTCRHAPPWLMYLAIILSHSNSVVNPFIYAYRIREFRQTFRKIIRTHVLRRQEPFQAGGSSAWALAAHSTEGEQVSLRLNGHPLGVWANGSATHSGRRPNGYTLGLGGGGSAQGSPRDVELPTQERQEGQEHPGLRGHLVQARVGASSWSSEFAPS
# [7] = target: T1, Adenosine receptor A1 (Homo sapiens, UniProt P30542); test: In vitro binding affinity for human Adenosine A1 receptor expressed in CHO-K1 cells; type: cell-based
# T1 sequence (P30542 whole entry): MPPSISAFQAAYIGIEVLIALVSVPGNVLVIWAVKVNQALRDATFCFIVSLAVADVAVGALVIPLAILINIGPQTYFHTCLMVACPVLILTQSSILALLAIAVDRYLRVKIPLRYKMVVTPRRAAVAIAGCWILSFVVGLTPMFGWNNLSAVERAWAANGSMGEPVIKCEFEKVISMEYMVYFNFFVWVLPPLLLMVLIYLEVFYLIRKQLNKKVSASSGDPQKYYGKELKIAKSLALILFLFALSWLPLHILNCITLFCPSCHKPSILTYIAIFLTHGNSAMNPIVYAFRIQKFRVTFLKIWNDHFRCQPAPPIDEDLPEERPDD
# [8] = system: Mus musculus; test: In vivo biodistribution in NMRI (Naval Medical Research Institute) mice bone at the dose of 0.15-0.2 nmol at 20 min; type: ADME, organism-based, Bone element
# [9] = system: Mus musculus; test: In vivo biodistribution in NMRI (Naval Medical Research Institute) mice heart at the dose of 0.15-0.2 nmol at 60 min; type: ADME, organism-based; details: 1 h
# [10] = system: Mus musculus; test: In vivo biodistribution in NMRI (Naval Medical Research Institute) mice pancreas at the dose of 0.15-0.2 nmol at 40 min; type: ADME, organism-based
# [11] = system: Mus musculus; test: In vivo biodistribution in NMRI (Naval Medical Research Institute) mice heart at the dose of 0.15-0.2 nmol at 2 min; type: ADME, organism-based
# [12] = system: Mus musculus; test: In vivo biodistribution in NMRI (Naval Medical Research Institute) mice bone at the dose of 0.15-0.2 nmol at 2 min; type: ADME, organism-based, Bone element
# [13] = system: Mus musculus; test: In vivo biodistribution in NMRI (Naval Medical Research Institute) mice lung at the dose of 0.15-0.2 nmol at 40 min; type: ADME, organism-based
# [14] = system: Mus musculus; test: In vivo biodistribution in NMRI (Naval Medical Research Institute) mice spleen at the dose of 0.15-0.2 nmol at 60 min; type: ADME, organism-based; details: 1 h
# [15] = system: Mus musculus; test: In vivo biodistribution in NMRI (Naval Medical Research Institute) mice heart at the dose of 0.15-0.2 nmol at 10 min; type: ADME, organism-based
# [16] = system: Mus musculus; test: In vivo biodistribution in NMRI (Naval Medical Research Institute) mice brain at the dose of 0.15-0.2 nmol at 40 min; type: ADME, organism-based
# [17] = system: Mus musculus; test: In vivo biodistribution in NMRI (Naval Medical Research Institute) mice brain at the dose of 0.15-0.2 nmol at 20 min; type: ADME, organism-based
# [18] = system: Mus musculus; test: In vivo biodistribution in NMRI (Naval Medical Research Institute) mice liver at the dose of 0.15-0.2 nmol at 40 min; type: ADME, organism-based
# [19] = system: Mus musculus; test: In vivo biodistribution in NMRI (Naval Medical Research Institute) mice blood at the dose of 0.15-0.2 nmol at 5 min; type: ADME, organism-based
# [20] = system: Mus musculus; test: In vivo biodistribution in NMRI (Naval Medical Research Institute) mice spleen at the dose of 0.15-0.2 nmol at 20 min; type: ADME, organism-based
# [21] = system: Mus musculus; test: In vivo biodistribution in NMRI (Naval Medical Research Institute) mice lung at the dose of 0.15-0.2 nmol at 10 min; type: ADME, organism-based
# [22] = system: Mus musculus; test: In vivo biodistribution in NMRI (Naval Medical Research Institute) mice intestine at the dose of 0.15-0.2 nmol at 60 min; type: ADME, organism-based; details: 1 h
# [23] = system: Mus musculus; test: In vivo biodistribution in NMRI (Naval Medical Research Institute) mice kidney at the dose of 0.15-0.2 nmol at 10 min; type: ADME, organism-based
# [24] = system: Mus musculus; test: In vivo biodistribution in NMRI (Naval Medical Research Institute) mice kidney at the dose of 0.15-0.2 nmol at 2 min; type: ADME, organism-based
# [25] = target: T2, Adenosine receptor A1 (Rattus norvegicus, UniProt P25099); test: In vitro binding affinity at rat Adenosine A1 receptor
# T2 sequence (P25099 whole entry): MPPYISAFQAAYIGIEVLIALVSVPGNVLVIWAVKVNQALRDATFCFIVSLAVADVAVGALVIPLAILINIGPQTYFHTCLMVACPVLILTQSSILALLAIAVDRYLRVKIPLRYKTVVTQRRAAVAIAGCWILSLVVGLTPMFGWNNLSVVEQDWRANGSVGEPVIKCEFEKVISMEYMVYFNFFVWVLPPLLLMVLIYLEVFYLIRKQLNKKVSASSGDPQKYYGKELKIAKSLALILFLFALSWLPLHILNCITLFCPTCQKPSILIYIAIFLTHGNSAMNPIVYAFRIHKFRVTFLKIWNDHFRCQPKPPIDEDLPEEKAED
# [26] = system: Mus musculus; test: In vivo biodistribution in NMRI (Naval Medical Research Institute) mice bone at the dose of 0.15-0.2 nmol at 5 min; type: ADME, organism-based, Bone element
# [27] = system: Mus musculus; test: In vivo biodistribution in NMRI (Naval Medical Research Institute) mice pnacreas at the dose of 0.15-0.2 nmol at 20 min; type: ADME, organism-based
# [28] = system: Mus musculus; test: In vivo biodistribution in NMRI (Naval Medical Research Institute) mice bone at the dose of 0.15-0.2 nmol at 60 min; type: ADME, organism-based, Bone element; details: 1 h
# [29] = system: Mus musculus; test: In vivo biodistribution in NMRI (Naval Medical Research Institute) mice splee nat the dose of 0.15-0.2 nmol at 10 min; type: ADME, organism-based
# [30] = system: Mus musculus; test: In vivo biodistribution in NMRI (Naval Medical Research Institute) mice spleen at the dose of 0.15-0.2 nmol at 40 min; type: ADME, organism-based
# [31] = system: Mus musculus; test: In vivo biodistribution in NMRI (Naval Medical Research Institute) mice bone at the dose of 0.15-0.2 nmol at 10 min; type: ADME, organism-based, Bone element
# [32] = system: Mus musculus; test: In vivo biodistribution in NMRI (Naval Medical Research Institute) mice lung at the dose of 0.15-0.2 nmol at 5 min; type: ADME, organism-based
smiles,measurement,setting,value
CCCn1c(=O)c2nc(C3CCCC3)[nH]c2n(CCC[18F])c1=O,ID/g,[1],2.44%
same,ID/g,[2],2.25%
same,ID/g,[3],2.21%
same,ID/g,[4],1.03%
same,ID/g,[5],9.34%
same,Ki,[6],812 nM
same,Kd,[7],1.26 nM
same,ID/g,[8],2.02%
same,ID/g,[9],1.63%
same,ID/g,[10],3.22%
same,ID/g,[11],4.64%
same,ID/g,[12],0.37%
same,ID/g,[13],5.7%
same,ID/g,[14],0.84%
same,ID/g,[15],3.83%
same,ID/g,[16],2.52%
same,ID/g,[17],2.39%
same,ID/g,[18],9.61%
same,ID/g,[19],6.53%
same,ID/g,[20],1.78%
same,ID/g,[21],5.79%
same,ID/g,[22],9.13%
same,ID/g,[23],6.1%
same,ID/g,[24],4.68%
same,Kd,[25],0.63 nM
same,ID/g,[26],1.4%
same,ID/g,[27],4.58%
same,ID/g,[28],2.27%
same,ID/g,[29],1.77%
same,ID/g,[30],1.79%
same,ID/g,[31],1.71%
same,ID/g,[32],4.22%
